Our source for the inhibition and IC50 values is ChEMBL document CHEMBL4806968, “Hipk inhibitors and methods of use thereof” (2020).

Experiment [1] has as its target NT-3 growth factor receptor (Homo sapiens) (UniProt Q16288). As to the kind of experiment: Inhibition of TRKC (unknown origin) at 0.5 uM relative to control.
In experiment [2] the target is Receptor-type tyrosine-protein kinase FLT3 (Homo sapiens) (UniProt P36888). As to the kind of experiment: Inhibition of FLT3 (unknown origin) at 0.5 uM relative to control.
In experiment [3] the target is High affinity nerve growth factor receptor (Homo sapiens) (UniProt P04629). As to the kind of experiment: Inhibition of TRKA (unknown origin) at 0.5 uM relative to control.
For experiment [4], the target named is T1, Ephrin type-A receptor 6 (Homo sapiens) (UniProt Q9UF33).
T1 sequence (whole entry): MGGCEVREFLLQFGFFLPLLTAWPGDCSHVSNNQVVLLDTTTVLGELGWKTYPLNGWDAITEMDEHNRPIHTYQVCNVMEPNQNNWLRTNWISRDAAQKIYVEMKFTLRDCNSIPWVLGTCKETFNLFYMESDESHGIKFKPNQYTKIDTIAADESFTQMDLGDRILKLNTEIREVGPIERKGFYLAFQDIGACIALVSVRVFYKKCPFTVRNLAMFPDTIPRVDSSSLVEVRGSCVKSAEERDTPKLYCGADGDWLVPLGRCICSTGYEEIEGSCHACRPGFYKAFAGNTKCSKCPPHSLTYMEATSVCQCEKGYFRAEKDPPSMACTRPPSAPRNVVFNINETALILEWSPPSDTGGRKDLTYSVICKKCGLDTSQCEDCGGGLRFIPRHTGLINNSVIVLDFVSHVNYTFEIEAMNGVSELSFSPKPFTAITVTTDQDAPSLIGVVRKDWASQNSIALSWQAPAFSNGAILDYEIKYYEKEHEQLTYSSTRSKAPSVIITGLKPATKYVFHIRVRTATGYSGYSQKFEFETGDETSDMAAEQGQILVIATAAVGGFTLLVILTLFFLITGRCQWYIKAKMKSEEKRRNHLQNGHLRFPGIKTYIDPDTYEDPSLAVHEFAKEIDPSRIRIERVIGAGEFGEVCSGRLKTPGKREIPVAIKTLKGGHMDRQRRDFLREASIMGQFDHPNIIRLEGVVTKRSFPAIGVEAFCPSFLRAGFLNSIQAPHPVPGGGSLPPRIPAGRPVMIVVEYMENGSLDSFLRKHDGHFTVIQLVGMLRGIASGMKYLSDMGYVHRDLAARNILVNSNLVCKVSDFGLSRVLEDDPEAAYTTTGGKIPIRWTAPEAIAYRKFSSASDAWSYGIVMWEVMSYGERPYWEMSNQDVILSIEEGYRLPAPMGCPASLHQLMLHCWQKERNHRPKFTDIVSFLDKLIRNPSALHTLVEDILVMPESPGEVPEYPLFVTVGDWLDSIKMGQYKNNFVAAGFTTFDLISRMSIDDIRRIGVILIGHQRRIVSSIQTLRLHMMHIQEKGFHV
Briefly: Inhibition of EPHA6 (unknown origin) at 0.5 uM relative to control.

Experiment [5] concerns the target T2, Homeodomain-interacting protein kinase 4 (Homo sapiens, UniProt Q8NE63).
T2 sequence (Q8NE63 whole entry): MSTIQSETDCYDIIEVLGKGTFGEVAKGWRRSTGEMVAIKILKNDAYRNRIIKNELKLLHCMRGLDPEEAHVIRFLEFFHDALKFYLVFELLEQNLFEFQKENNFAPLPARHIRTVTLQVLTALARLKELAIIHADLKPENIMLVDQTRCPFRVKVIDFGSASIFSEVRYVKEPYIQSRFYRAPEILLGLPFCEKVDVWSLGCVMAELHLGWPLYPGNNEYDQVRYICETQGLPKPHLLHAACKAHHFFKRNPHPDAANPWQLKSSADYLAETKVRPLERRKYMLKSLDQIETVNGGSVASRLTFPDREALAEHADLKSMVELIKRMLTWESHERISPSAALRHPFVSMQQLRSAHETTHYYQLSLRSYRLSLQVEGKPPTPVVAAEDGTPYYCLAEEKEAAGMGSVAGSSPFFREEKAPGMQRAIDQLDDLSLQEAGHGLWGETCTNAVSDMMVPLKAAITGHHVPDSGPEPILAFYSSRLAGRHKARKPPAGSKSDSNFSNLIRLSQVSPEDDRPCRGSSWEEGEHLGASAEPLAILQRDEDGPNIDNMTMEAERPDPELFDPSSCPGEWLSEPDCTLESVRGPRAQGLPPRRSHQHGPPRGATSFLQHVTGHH
Briefly: Inhibition of HIPK4 (unknown origin).

In experiment [6] the target is T3, Discoidin domain-containing receptor 2 (Homo sapiens) (UniProt Q16832).
T3 sequence (whole entry): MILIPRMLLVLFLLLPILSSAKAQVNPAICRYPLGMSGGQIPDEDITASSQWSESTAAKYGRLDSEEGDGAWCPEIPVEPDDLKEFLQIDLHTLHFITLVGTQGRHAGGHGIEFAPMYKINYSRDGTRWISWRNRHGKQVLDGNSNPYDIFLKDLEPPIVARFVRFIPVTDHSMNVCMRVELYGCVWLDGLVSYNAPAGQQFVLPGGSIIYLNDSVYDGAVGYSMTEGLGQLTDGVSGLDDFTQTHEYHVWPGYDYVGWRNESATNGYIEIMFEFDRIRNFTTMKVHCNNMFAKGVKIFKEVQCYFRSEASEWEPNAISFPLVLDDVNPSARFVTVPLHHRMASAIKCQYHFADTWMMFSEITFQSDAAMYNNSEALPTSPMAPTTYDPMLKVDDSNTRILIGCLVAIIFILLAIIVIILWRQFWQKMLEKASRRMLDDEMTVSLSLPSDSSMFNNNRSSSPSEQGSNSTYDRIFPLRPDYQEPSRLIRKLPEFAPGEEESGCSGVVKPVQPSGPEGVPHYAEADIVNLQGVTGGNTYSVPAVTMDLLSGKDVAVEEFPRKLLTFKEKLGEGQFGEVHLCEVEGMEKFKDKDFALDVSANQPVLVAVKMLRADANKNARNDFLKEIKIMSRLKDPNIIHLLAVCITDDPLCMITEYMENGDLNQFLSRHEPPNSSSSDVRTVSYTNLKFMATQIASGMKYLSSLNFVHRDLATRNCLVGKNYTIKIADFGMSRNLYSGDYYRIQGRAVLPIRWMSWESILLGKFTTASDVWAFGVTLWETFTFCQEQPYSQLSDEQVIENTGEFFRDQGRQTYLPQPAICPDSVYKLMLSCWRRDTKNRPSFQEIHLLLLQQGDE
Briefly: Inhibition of DDR2 (unknown origin) at 0.5 uM relative to control.

The target in experiment [7] is T4, Homeodomain-interacting protein kinase 4 (Homo sapiens) (UniProt Q8NE63).
T4 sequence (whole entry): T2 sequence (Q8NE63 whole entry)
As to the kind of experiment: Inhibition of HIPK4 (unknown origin) at 0.5 uM relative to control.

Sequence of High affinity nerve growth factor receptor (Homo sapiens) (P04629 33-796 limits assumed): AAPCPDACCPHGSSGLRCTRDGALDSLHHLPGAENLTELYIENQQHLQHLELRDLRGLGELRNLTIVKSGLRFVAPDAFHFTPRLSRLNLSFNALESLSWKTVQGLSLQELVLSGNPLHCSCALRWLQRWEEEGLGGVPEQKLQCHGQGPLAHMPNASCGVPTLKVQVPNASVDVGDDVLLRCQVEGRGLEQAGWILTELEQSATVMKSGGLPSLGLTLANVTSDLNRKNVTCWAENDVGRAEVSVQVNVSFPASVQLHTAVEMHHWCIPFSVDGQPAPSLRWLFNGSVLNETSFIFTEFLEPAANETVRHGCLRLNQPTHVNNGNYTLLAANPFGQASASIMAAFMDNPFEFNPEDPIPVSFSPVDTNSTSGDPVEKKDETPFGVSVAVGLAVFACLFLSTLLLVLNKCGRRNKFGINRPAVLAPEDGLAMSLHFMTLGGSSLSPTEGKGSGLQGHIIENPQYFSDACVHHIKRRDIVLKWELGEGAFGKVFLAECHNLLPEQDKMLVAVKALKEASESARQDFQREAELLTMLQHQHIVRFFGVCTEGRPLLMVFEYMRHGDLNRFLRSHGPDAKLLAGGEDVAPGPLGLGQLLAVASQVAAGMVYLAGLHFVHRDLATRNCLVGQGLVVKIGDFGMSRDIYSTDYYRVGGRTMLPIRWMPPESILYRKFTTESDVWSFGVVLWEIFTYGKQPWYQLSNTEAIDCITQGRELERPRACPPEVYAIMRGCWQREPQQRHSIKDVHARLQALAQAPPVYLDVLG
Sequence of Receptor-type tyrosine-protein kinase FLT3 (Homo sapiens) (P36888 whole entry): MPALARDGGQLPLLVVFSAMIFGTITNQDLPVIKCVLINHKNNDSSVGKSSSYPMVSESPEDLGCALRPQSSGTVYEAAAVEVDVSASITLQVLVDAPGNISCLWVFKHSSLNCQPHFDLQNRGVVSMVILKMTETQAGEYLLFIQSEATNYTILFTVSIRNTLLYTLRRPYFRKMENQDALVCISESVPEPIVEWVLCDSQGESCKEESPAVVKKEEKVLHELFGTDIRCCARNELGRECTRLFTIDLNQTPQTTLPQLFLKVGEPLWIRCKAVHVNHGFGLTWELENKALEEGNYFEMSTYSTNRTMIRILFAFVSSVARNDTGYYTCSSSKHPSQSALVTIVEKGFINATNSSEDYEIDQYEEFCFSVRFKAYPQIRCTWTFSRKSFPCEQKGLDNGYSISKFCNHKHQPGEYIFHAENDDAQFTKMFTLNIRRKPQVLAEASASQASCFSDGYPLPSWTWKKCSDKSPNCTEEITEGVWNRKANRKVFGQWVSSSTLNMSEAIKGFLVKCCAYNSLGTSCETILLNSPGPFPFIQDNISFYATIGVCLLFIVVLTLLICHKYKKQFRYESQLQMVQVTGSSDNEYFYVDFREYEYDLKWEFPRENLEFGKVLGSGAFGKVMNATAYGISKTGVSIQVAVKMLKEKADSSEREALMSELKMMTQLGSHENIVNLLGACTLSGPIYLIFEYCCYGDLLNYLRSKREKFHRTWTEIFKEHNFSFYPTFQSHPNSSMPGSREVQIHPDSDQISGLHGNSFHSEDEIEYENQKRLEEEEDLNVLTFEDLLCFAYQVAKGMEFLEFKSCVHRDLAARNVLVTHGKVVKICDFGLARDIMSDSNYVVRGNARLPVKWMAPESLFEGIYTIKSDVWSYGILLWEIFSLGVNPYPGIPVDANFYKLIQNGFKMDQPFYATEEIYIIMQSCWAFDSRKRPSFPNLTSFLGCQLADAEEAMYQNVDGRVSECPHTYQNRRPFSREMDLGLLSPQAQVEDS
Sequence of NT-3 growth factor receptor (Homo sapiens) (Q16288 32-839 limits assumed): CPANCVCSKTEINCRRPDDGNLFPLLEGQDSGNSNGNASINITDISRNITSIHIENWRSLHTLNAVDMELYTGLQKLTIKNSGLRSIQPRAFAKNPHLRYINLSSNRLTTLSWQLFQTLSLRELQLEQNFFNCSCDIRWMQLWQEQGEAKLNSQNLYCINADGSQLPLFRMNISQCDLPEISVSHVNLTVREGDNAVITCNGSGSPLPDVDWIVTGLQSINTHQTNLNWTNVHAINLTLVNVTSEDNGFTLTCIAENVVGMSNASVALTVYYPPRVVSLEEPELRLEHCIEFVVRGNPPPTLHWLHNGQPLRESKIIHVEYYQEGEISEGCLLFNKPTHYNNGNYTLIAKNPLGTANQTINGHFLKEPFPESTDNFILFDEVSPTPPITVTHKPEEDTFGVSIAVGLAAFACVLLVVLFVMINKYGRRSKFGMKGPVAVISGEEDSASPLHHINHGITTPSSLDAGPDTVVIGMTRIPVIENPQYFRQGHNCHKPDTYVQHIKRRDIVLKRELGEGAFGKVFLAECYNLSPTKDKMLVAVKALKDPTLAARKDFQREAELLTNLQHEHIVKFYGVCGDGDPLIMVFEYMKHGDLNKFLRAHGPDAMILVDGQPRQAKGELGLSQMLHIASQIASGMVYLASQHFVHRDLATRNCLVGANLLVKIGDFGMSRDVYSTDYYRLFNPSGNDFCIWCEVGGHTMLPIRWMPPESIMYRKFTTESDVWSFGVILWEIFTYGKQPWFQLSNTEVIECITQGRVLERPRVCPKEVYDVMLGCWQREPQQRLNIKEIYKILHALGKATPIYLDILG

Broadly, the inhibition is the drop in the measured response relative to a control, in per cent. A higher inhibition goes with strong suppression. A word on the IC50: it is the concentration needed to halve the response being measured. Low readings indicate greater potency in that assay, high ones weaker potency in that assay. For the compound `CNC(=O)c1cc(Oc2ccc(NC(=O)c3n[nH]nc3-c3ccc(F)cc3)cc2)ccn1`, the inhibition was 55% in experiment [1]; 44% in experiment [2]; 43% in experiment [3]; 27% in experiment [4]; 76% in experiment [6]; 84% in experiment [7]. For the same compound, the IC50 in experiment [5] was 49 nM.

Turning to `CNC(=O)c1cc(Oc2ccc(NC(=O)c3nc(SC)n(CCN(C)C)c3-c3ccc(F)cc3)cc2)ccn1`, the inhibition in experiment [1] was found to be 57%; in experiment [2] it was 50%; in experiment [3], 42%; in experiment [4] it was 58%; in experiment [6] it was 26%; in experiment [7] it was 91%. This compound came in with an IC50 in experiment [5] of 23 nM.

Regarding `CNC(=O)c1cc(Oc2ccc(NC(=O)c3nc(SC)oc3-c3ccc(F)cc3)cc2)ccn1`, the inhibition in experiment [1] is 51%; in experiment [3], 47%; in experiment [4], 69%; in experiment [6] it was 58%; in experiment [7], 99%. The same compound came in with an IC50 in experiment [5] of 3.3 nM.

Turning to `CNC(=O)c1cc(Oc2ccc(NC(=O)c3nc(SC)oc3-c3ccc(F)cc3)cc2F)ccn1`, the inhibition came to 46% in experiment [1]; 36% in experiment [2]; 43% in experiment [3]; 69% in experiment [4]; 47% in experiment [6]; 98% in experiment [7]. Further, the IC50 in experiment [5] stood at 2.8 nM.

Regarding `CNC(=O)c1cc(Oc2ccc(NC(=O)c3nc(S(C)(=O)=O)sc3-c3ccc(F)cc3)cc2)ccn1`, the inhibition in experiment [1] came out at 25%; in experiment [2], 56%; in experiment [3], 36%; in experiment [6], 61%; in experiment [7], 96%. In experiment [5], half-maximal inhibition (IC50) was put at 5.1 nM.

Take `CSc1nc(C(=O)Nc2ccc(Oc3cc4cnn(C)c4cc3Br)cc2)c(-c2ccc(F)cc2)o1`: the inhibition in experiment [2] stood at 27%; in experiment [4] it was 19%; in experiment [6] it was 48%; in experiment [7] it was 87%. This compound displayed a half-maximal inhibitory concentration (IC50) in experiment [5] of 32 nM.

Turning to `CNC(=O)c1cc(Oc2ccc(NC(=O)c3nc(NC)sc3-c3ccc(F)cc3)cc2)ccn1`, the inhibition in experiment [1] amounted to 76%; in experiment [3] it was 58%; in experiment [4], 62%; in experiment [6], 54%; in experiment [7], 96%. The same compound had an IC50 in experiment [5] of 5.2 nM.

Consider `CNC(=O)c1cc(Oc2ccc(NC(=O)c3nc(C(F)(F)F)sc3-c3ccc(F)cc3)cc2)ccn1`, for which the inhibition in experiment [2] is 39%; in experiment [4], 67%; in experiment [7] it was 95%. In experiment [5], it took 9.6 nM to reach half-maximal inhibition (IC50).

Turning to `CNC(=O)c1cc(Oc2ccc(NC(=O)c3nc(SC)[nH]c3-c3ccc(F)cc3)cc2)ccn1`, the inhibition came to 90% in experiment [1], 97% in experiment [6] and 97% in experiment [7]. Also, the IC50 in experiment [5] turned out to be 19 nM.
